Consider one compound from US20090093460A1, “Compositions” (AstraZeneca AB, priority 2003, published 2009).

One assay addresses T1, D2 receptors (Homo sapiens, UniProt P14416).
T1 construct: from tissue; host or cells: brain of living primate subjects (PET)
On the set-up: species or system primate. The note with it: in vivo.

Another assay relates to mice. Description: Tail suspension test. It counts as in vivo, mouse. Here is the method: Antidepressant activity of 11-piperazin-1-yldibenzo[b,f][1,4]thiazepine was assessed in mice according to the tail suspension test. As shown in the results below, 11-piperazin-1-yldibenzo[b,f][1,4]thiazepine has antidepressant activity in mice.
In a first experiment, mice (n=10/group) were treated with vehicle, 2.0, 5.0, or 10.0 mg/kg of 11-piperazin-1-yldibenzo[b,f][1,4]thiazepine s.c. 15 minutes prior to the test session. Mice were suspended from their tails for 7 minutes. During the last 5 minutes of the test, the duration of immobility was recorded. In a second experiment, mice (n=10/group) were treated with vehicle, 30 mg/kg 11-piperazin-1-yldibenzo[b,f][1,4]thiazepine, or 30 mg/kg fluoxetine p.o. 60 minutes prior to the test session. Mice were suspended from their tails for 7 minutes. During the last 5 minutes of the test, the duration of immobility was recorded.

The target in another assay is T2, Adrenergic α2A (Homo sapiens, UniProt P08913).
T2 sequence (P08913 1-465): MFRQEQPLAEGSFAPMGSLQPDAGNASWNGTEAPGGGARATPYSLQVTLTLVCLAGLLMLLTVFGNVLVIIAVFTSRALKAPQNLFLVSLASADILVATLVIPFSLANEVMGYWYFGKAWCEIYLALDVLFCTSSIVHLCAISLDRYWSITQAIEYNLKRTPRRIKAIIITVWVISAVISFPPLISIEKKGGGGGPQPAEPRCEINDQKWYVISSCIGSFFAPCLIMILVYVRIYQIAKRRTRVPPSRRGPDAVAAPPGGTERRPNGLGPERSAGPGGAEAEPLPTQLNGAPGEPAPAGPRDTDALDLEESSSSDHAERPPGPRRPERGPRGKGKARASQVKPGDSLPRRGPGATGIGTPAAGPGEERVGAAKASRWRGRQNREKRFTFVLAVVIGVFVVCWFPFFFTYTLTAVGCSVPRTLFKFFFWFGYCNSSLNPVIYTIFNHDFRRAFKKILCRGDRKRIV
Description: Radioligand binding Adrenergic α2A.

In a further assay the test system is rats. The assay is described as follows: Geller-Seifter conflict test. Type of assay: in vivo, rat. The method, then:
Anxiolytic activity of 11-piperazin-1-yldibenzo[b,f][1,4]thiazepine was tested in rats according to the Geller-Seifter conflict test. Efficacy results are presented in Table 1 and plasma levels in satellite exposure animals at 0.25 hours after administration are provided in Table 2.
Subjects: 30 Male Long Evans rats were used. Subjects weighed 350-450 g at the time of testing, and were food restricted to 85% of free feeding weight by post session feeding with approximately 15 g of standard rat chow per day. All animals had free access to water except during experimental testing. Subjects were individually housed throughout the course of the experiment under a 12 hour light/dark cycle.
Apparatus: Standard 2-lever operant chambers were used (Med Associates). The chambers were fitted with two retractable response levers and a stimulus lamp over each of the 2 levers. A pellet food dispenser delivered 45 mg food pellets, (Bio Serv) to a cup located inside of the chamber below and between the 2 response levers. A lamp at the top and back of the chamber served as houselights. […] All events in the chambers were controlled and monitored by a microprocessor. […]
Several doses were tested on a given day in different subjects. […] The dependent variables recorded were the rate of responding in unpunished and punished components (total responses/total time under the component), the number of shocks delivered. […]

In assay [1] the target is Adrenergic α1* Non-Selective. The assay is described as follows: Radioligand binding 203500 Adrenergic α1* Non-Selective. Set-up: species or system rat. An excerpt:
Receptor binding methods, α-adrenergic nonselective, are provided below.

The target of another assay is T3, D1 receptors (Homo sapiens, UniProt P21728).
T3 construct: from tissue; host or cells: brain of living primate subjects (PET)
Description: PET scans of primate subjects, D1 occupancy. The note with it: preliminary PET scans. It counts as in vivo. An excerpt:
The compound of Formula I is a dibenzothiazepine that has shown antidopaminergic activity.

T3 sequence (P21728 whole entry): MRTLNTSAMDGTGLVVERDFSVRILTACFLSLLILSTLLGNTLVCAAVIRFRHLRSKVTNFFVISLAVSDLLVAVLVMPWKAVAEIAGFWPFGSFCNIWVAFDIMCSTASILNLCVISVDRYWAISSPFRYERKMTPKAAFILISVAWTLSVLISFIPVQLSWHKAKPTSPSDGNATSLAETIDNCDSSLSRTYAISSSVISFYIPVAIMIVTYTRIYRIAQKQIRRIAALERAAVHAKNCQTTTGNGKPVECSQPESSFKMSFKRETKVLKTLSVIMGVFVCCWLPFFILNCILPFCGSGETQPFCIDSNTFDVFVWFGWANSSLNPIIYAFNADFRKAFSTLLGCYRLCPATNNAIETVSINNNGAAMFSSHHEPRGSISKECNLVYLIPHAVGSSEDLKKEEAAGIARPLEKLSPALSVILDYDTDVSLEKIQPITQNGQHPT
T1 sequence (P14416 whole entry): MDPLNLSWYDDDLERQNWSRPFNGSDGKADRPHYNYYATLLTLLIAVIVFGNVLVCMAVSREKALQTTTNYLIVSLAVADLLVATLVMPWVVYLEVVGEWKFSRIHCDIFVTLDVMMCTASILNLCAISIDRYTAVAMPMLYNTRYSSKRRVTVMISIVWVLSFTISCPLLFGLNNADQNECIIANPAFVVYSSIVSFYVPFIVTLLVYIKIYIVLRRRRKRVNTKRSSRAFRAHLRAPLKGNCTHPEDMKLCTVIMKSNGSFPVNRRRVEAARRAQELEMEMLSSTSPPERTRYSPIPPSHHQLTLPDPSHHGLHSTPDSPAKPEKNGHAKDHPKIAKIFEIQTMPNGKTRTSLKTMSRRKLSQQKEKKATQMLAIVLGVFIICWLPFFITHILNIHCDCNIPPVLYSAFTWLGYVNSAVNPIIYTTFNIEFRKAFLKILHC

By IC50 is commonly meant the concentration at which inhibition is half-maximal. A low value points to greater potency. One may read the Ki as a dissociation constant, usually derived from enzyme kinetics or from competition with a known ligand. In general, inhibition refers to the relative decrease from the control value, in per cent. The low end stands for a weak effect, the high end for a strong effect. As for `c1ccc2c(c1)N=C(N1CCNCC1)c1ccccc1S2` [11-piperazin-1-yldibenzo[b,f][1,4]thiazepine], the “receptor occupancy by PET” value on D2 receptors and on D1 receptors was “occupies” each time. Moreover, the “reduction of immobility, fraction of that of the vehicle control group” value is on record as “more than ½” in the assay with mice (10.0 mg/kg s.c.) and “more than ½” in the assay on mice (30 mg/kg p.o., 60 minutes prior). In addition, in the assay on mice (10.0 mg/kg s.c., p<0.01), the “duration of immobility compared with controls” value is listed as “significantly reduced immobility”. The “duration of immobility compared to the vehicle control group” value with mice (30 mg/kg p.o., 60 minutes prior, p<0.01) is “significantly reduced immobility”. Moreover, the duration of immobility result in the assay on mice (all doses tested: 2.0, 5.0, 10.0 mg/kg s.c., 15 minutes prior) was “reduced immobility”. In addition, the figures for the IC50 (on Adrenergic α2A; in assay [1]) were 2.82 ± 0.275 µM and 0.0693 µM, respectively. The inhibition constant Ki at Adrenergic α2A is 1.06 ± 0.103 µM; in assay [1], 0.0372 µM. On Adrenergic α2A, the n came to 0.969 ± 0.012. Besides, the inhibition at 3 µM on Adrenergic α2A (3 μM) came to 51%. For the same compound, the “rates of responding in the punished component” value in the assay on rats (doses of 2, 5, and 10 mg/kg s.c.) is given as “Significant increases”. The Inactive dose in the assay on rats (rats, 15 minute pre-treatment) amounted to 1 mg/kg s.c. For the same compound, the “% INH.” value in assay [1] (0.1 μM) came out at 61%.
